From the kinase profiling compilation of Christmann-Franck et al. (2016)

Key:
Conditions in all cases: compound 10.0 µM
[1] = system: ABL1 (human), P00519 [E255K]
[2] = system: ABL1 (human), P00519 [M351T]
[3] = biological target: ABL2 (human) (UniProt P42684)
[4] = biological target: AURKB (human) (UniProt Q96GD4)
[5] = biological target: CDK8 (human) (UniProt P49336)
[6] = biological target: EGFR (human) (UniProt P00533)
[7] = system: EGFR (human), P00533 [746-750 del]
[8] = system: EGFR (human), P00533 [752-759 del]
[9] = system: EGFR (human), P00533 [T790M/L858R]
[10] = system: KIT (human), P10721 [D816H]
Chain of KIT (human), P10721 [D816H] (P10721 whole entry D816H, looked up): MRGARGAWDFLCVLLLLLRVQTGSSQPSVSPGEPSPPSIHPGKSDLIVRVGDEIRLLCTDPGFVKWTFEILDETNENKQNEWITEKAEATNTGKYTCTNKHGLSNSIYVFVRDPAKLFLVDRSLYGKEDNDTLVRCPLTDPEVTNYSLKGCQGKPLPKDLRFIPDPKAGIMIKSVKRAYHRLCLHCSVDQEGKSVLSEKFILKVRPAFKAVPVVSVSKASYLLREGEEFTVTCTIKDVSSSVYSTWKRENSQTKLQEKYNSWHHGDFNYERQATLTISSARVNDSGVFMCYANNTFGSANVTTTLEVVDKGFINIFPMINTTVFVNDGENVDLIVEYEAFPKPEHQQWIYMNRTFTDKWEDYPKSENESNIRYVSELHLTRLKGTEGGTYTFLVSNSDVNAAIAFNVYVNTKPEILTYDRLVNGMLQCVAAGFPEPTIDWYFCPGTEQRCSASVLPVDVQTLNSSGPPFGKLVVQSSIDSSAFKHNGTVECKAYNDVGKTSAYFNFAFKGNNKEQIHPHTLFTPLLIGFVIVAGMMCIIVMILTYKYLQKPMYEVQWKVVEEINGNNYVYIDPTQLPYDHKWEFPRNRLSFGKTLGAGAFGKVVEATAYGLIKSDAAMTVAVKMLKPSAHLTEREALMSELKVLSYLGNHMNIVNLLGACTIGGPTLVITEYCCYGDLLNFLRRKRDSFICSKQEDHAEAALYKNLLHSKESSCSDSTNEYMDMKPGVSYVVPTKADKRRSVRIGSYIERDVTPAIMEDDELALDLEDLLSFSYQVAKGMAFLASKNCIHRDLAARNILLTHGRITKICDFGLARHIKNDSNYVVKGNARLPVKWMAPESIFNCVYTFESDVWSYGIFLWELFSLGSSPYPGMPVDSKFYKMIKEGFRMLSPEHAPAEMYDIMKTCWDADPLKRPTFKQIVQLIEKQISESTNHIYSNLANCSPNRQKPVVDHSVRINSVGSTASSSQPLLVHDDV

[11] = biological target: LCK (human) (UniProt P06239)
Chain of LCK (human) (P06239 whole entry, looked up): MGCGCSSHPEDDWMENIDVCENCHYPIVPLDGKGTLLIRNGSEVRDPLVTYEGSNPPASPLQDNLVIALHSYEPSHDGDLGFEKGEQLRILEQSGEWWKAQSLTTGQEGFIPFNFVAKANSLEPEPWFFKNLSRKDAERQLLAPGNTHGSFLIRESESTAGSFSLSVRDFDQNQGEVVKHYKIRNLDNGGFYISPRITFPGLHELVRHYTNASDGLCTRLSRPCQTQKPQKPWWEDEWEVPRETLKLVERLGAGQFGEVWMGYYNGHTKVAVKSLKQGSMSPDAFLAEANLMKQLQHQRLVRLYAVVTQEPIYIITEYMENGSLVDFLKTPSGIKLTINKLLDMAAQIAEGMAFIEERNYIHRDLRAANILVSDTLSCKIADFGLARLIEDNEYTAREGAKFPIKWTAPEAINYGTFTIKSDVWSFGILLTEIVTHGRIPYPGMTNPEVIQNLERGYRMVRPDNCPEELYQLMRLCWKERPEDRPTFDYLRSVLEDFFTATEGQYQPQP

[12] = biological target: PAK2 (human) (UniProt Q13177)
Chain of PAK2 (human) (Q13177 whole entry, looked up): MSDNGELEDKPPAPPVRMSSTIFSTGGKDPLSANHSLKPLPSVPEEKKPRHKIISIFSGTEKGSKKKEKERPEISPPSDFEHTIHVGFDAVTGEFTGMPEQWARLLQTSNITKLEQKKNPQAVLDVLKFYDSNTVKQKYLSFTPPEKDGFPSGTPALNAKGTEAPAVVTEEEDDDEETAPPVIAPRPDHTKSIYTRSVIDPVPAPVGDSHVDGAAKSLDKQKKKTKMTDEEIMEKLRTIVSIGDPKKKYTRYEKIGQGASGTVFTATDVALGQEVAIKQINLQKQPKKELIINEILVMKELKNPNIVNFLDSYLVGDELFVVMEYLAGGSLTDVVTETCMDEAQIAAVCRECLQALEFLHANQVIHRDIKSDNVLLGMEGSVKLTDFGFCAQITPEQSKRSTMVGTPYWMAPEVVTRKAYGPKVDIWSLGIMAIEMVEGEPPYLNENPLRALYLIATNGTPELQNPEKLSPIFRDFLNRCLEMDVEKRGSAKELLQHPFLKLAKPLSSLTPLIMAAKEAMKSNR

[13] = system: PIK3CA (human), P42336 [C420R]
Chain of PIK3CA (human), P42336 [C420R] (P42336 whole entry C420R, looked up): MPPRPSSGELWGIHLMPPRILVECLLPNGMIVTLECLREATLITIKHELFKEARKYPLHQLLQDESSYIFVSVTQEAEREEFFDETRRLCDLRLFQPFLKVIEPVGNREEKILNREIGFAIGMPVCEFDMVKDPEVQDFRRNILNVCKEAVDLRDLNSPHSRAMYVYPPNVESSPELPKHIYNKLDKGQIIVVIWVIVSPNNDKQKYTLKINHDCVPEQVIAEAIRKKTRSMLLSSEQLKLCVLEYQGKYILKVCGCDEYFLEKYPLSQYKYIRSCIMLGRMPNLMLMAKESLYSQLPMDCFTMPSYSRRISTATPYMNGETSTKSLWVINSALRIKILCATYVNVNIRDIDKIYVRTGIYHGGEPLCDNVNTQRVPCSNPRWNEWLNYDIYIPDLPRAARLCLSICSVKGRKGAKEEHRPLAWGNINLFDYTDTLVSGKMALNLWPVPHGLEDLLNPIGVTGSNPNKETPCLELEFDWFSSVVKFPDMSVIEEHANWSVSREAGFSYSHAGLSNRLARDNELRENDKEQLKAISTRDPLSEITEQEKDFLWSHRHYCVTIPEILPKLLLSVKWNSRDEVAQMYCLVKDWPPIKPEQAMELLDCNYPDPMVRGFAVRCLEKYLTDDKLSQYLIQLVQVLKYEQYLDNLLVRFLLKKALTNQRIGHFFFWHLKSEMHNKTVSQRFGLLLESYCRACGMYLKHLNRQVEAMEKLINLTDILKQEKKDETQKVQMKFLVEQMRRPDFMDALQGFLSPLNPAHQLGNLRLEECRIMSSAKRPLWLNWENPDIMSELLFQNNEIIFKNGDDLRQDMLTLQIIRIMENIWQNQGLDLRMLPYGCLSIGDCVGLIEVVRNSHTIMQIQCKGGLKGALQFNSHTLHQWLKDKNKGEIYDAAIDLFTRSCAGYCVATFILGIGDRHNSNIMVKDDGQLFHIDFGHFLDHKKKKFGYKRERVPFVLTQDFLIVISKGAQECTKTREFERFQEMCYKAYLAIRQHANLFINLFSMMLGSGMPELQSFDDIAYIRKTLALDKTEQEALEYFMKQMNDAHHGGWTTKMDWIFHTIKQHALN

[14] = biological target: RPS6KA5 KD2 (human) (UniProt O75582)
Chain of RPS6KA5 KD2 (human) (O75582 whole entry, looked up): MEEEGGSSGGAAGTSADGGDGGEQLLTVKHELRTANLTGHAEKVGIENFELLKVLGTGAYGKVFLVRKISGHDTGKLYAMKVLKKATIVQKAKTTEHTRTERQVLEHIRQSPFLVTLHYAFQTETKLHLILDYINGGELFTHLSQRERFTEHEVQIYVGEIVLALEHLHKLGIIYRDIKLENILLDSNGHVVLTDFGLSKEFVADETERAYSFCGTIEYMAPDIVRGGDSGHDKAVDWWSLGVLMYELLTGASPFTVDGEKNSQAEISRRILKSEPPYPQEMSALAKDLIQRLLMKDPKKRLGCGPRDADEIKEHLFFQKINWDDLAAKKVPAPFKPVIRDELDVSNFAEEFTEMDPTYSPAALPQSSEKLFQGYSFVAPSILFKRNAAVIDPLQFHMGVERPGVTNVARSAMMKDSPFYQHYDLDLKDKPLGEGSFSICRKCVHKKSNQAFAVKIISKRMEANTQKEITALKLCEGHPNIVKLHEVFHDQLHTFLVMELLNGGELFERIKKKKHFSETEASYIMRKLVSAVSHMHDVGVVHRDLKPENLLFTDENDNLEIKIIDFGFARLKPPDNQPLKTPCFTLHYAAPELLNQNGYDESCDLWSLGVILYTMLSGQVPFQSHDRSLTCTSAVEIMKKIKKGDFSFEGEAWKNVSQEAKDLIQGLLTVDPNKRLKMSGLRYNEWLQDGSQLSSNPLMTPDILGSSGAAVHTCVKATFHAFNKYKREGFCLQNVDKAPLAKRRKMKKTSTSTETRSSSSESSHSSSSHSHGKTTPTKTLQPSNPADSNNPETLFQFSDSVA

Chain of AURKB (human) (Q96GD4 whole entry, looked up): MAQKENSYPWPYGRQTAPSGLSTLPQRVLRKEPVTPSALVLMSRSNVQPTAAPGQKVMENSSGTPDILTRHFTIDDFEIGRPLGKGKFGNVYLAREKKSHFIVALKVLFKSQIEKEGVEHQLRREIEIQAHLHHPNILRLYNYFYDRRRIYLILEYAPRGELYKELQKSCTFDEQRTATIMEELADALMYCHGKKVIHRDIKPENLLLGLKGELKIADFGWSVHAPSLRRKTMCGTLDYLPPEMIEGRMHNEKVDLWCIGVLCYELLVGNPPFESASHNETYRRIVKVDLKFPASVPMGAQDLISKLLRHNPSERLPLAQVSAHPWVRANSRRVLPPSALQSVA
Chain of CDK8 (human) (P49336 whole entry, looked up): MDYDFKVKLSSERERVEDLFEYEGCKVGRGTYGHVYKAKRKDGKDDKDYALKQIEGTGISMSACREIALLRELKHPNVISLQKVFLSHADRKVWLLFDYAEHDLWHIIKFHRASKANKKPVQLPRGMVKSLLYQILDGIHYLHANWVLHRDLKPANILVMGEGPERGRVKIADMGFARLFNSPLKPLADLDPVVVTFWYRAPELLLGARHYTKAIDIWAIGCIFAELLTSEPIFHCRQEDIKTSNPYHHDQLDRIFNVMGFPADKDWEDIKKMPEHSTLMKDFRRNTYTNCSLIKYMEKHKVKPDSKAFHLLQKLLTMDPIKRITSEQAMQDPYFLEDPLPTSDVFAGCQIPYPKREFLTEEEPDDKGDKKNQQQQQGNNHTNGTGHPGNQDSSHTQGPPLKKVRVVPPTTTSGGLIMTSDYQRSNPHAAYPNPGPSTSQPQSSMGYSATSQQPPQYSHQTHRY

## CNC(=O)c1cc(Oc2ccc(NC(=O)Nc3ccc(Cl)c(C(F)(F)F)c3)cc2)cc[n+]1[O-]
[1]
  per cent of control: 38%
[2]
  per cent of control: 21%
[3]
  per cent of control: 25%
[4]
  per cent of control: 0%
[5]
  per cent of control: 0.6%
[6]
  per cent of control: 75%
[7]
  per cent of control: 84%
[8]
  per cent of control: 96%
[9]
  per cent of control: 82%
[10]
  per cent of control: 17%
[11]
  per cent of control: 2.5%
[12]
  per cent of control: 93%
[13]
  per cent of control: 40%
[14]
  per cent of control: 81%
